# Laboratory results reported in the supplement of paper PMC7661543.
# ± gives the standard deviation of the averaged measurements.
# How the values were obtained:
# Assay in all cases: relative cell number vs DMSO control (72 h) (% of DMSO); higher = less growth inhibition (more cells)
# Conditions in all cases: sgRNA knockout: sgNT
# ZR-75-1 = system: ZR-75-1
# Procedure: (§1)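 QMAP-Seq: a pool of 5 breast cancer cell lines (ZR-75-1, SKBR3, HCC-38, MDA-MB-231, BT-20), each carrying 12 doxycycline-inducible Cas9 sgRNA perturbations (11 knockouts plus non-targeting sgNT), was treated with compounds for 72 h at four 10-fold doses (10 nM-10 uM or 1 nM-1 uM range). Barcodes were amplified and sequenced, and cell number was interpolated from 293T spike-in standard curves. The result is expressed as % of the median of DMSO wells. Two biological replicates.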
# MDA-MB-231 = system: MDA-MB-231
# Procedure: as §1
# HCC-38 = system: HCC-38
# Procedure: as §1
# BT-20 = system: BT-20
# Procedure: as §1
# SKBR3 = system: SKBR3
# Procedure: as §1
SMILES,relative cell number (ZR-75-1; 10 nM),relative cell number (ZR-75-1; 100 nM),relative cell number (ZR-75-1; 1000 nM),relative cell number (ZR-75-1; 10000 nM),relative cell number (MDA-MB-231; 10 nM),relative cell number (MDA-MB-231; 100 nM),relative cell number (MDA-MB-231; 1000 nM),relative cell number (MDA-MB-231; 10000 nM),relative cell number (HCC-38; 10 nM),relative cell number (HCC-38; 100 nM),relative cell number (HCC-38; 1000 nM),relative cell number (HCC-38; 10000 nM),relative cell number (BT-20; 10 nM),relative cell number (BT-20; 100 nM),relative cell number (BT-20; 1000 nM),relative cell number (BT-20; 10000 nM),relative cell number (SKBR3; 10 nM),relative cell number (SKBR3; 100 nM),relative cell number (SKBR3; 1000 nM),relative cell number (SKBR3; 10000 nM),relative cell number (ZR-75-1; 1 nM),relative cell number (MDA-MB-231; 1 nM),relative cell number (HCC-38; 1 nM),relative cell number (BT-20; 1 nM),relative cell number (SKBR3; 1 nM)
COc1cc(CCc2cc(NC(=O)c3ccc(N4CC(C)NC(C)C4)cc3)n[nH]2)cc(OC)c1 (stereo not given) [AZD4547],82.1 ± 31,68.3 ± 13,83.9 ± 5.3,21.3 ± 10,79.2 ± 13,100.2 ± 0.6,99.5 ± 11,40.1 ± 3,88.6 ± 1.6,64.5 ± 6.9,54.6 ± 1.7,46.8 ± 1.9,66.6 ± 0.77,94.7 ± 4.5,81.9 ± 15,56.5 ± 2.4,62.3 ± 26,83 ± 9.8,94.1 ± 33,51 ± 14,–,–,–,–,–
CN(C)C(=O)c1ccc(S(=O)(=O)c2ccc(NC(=O)[C@@](C)(O)C(F)(F)F)c(Cl)c2)cc1 [AZD7545],110 ± 7.3,116 ± 53,91.8 ± 25,42.7 ± 5.5,103 ± 17,121 ± 14,104 ± 39,89.5 ± 47,105 ± 6.3,90 ± 14,97.8 ± 1.1,82.9 ± 1.9,91.2 ± 24,103 ± 25,102 ± 22,95.7 ± 8.7,97.6 ± 9.6,103 ± 18,95.8 ± 11,70.3 ± 10,–,–,–,–,–
C[C@@H](Nc1cc(F)cc(F)c1)c1cc(C(=O)N(C)C)cc2c(=O)cc(N3CCOCC3)oc12 [AZD8186],91.2 ± 19,103 ± 1.3,66.4 ± 4,49.1 ± 22,109 ± 3.1,134 ± 21,130 ± 80,83.4 ± 28,97.9 ± 24,105 ± 19,86.8 ± 7.5,79.5 ± 7.5,103 ± 9.9,117 ± 3.5,107 ± 23,98.3 ± 1.2,88.2 ± 0.97,103 ± 18,94.2 ± 6.8,59.6 ± 10,–,–,–,–,–
C[C@]12CC[C@H](O)CC1=CC[C@@H]1[C@@H]2CC[C@]2(C)C(c3cccnc3)=CC[C@@H]12 [Abiraterone],115 ± 34,105 ± 18,90.5 ± 55,–,115 ± 3.5,99.4 ± 5.8,153 ± 19,–,107 ± 4.5,104 ± 5.2,116 ± 16,–,115 ± 6.5,118 ± 20,116 ± 3.4,–,118 ± 15,114 ± 42,114 ± 10,–,101 ± 16,127 ± 2.9,109 ± 2.1,109 ± 10,139 ± 37
CN(C)C/C=C/C(=O)Nc1cc2c(Nc3ccc(F)c(Cl)c3)ncnc2cc1O[C@H]1CCOC1 [Afatinib],103 ± 7.7,72.2 ± 40,68.8 ± 6.8,13 ± 0.97,151 ± 15,77.1 ± 36,93.9 ± 5.5,15.6 ± 3.4,94.6 ± 18,101 ± 22,75.7 ± 7.1,21.2 ± 1.6,117 ± 13,66.9 ± 10,82.8 ± 8.8,20.2 ± 4.5,85.2 ± 6.7,34.5 ± 13,18.7 ± 0.37,10.8 ± 1.1,–,–,–,–,–
COc1cc(Nc2ncc3c(n2)-c2ccc(Cl)cc2C(c2c(F)cccc2OC)=NC3)ccc1C(=O)O [Alisertib],82.4 ± 36,39.4 ± 3.1,42 ± 10,35.2 ± 1.5,112 ± 7.3,50.3 ± 15,59.5 ± 1.8,49.3 ± 8.4,99.89 ± 0.26,53.9 ± 1,57.4 ± 9.7,48.4 ± 1.9,92.5 ± 23,66.5 ± 8,77.8 ± 24,68.3 ± 5.7,121 ± 14,80.8 ± 8.3,77.2 ± 11,91.2 ± 9.5,–,–,–,–,–
